Converted amounts (≈) assume the structure as drawn. Like-named read-outs stand apart in the source and are kept apart here.

For series [1], the system named is Mauthner axon of zebrafish embryos. The experiment in a line: Mauthner axon regeneration after photoablation. Type of series: in vivo. The following applies: 3 dpf zebrafish embryos. From the text:
The Mauthner neuron is a giant neuron in the hindbrain of zebrafish embryos, which is a widely used model for studying regeneration. The Mauthner axon of 3 dpf zebrafish embryos was photoablated with two-photon irradiation at 800 nm.

Series [2] is described as follows: Photostability under 480±10 nm irradiation. The series is classed as physicochemical. The following applies: 5 μM, 480±10 nm for 0, 5, 10 and 15 minutes. The protocol:
(§1) Fluorescence emission spectra (λexc=350 nm) were recorded in assay buffer containing 0.1% DMSO applying the inhibitors at 5 μM concentrations. The photoconversion measurements were carried out using 5 μM neurelaxin-A in assay buffer and irradiating the samples at 480±10 nm for 0, 5, 10 and 15 minutes using a Fluorescence Spectrometer (F900, Edinburgh Instruments) equipped with a 450 W Xenon Lamp. Their absorbance spectra were measured at each time point.
Neurelaxin-A's photostability was measured by irradiating the compound in assay buffer at 480±10 nm for 0, 5, 10 and 15 minutes and recorded the absorption spectra afterwards (FIG. 2C).

Series [3] concerns embryonic rat hippocampal neurons. The experiment in a line: Cannabinoid (WIN55,212-2)-induced growth cone retraction. The series is classed as cell-based. The settings on record: 100 μM pre-treatment, WIN55,212-2 100 nM. The protocol:
Embryonic rat hippocampal neurons were isolated from 18-day-old embryo and cultured on poly-D-lysine coated dish in Neurobasal medium complemented with B27, FBS and glutamax for 6 days and transfected by using Lipofectamine 2000 with DNA codig for LifeAct-mCherry and CB1R-CFP.
The growth of neurites were monitored by fluorescent miscroscopy after the addition of different pre-treatment doses of neurelaxin-A at 20 minutes, followed 20 minutes later by the addition of 100 nM of the synthetic cannabinoid WIN55,212-2 as described in Roland et al, 2014.

In series [4] the test system is EGFP-α-tubulin H2B-mCherry HeLa Kyoto cells. As to the kind of experiment: HeLa cell toxicity, 12-hour confocal time-lapse imaging. The series is classed as cell-based, human. The settings on record: 50 μM, 12 hours imaging. The method, then: For phototoxicity experiments, confocal time-lapse imaging of HeLa Kyoto H2B-mCherry eGFP-α-tubulin cells for 12 hours was performed in DMEM further supplemented with 25 mM HEPES in order to achieve CO2 independent media. Confocal time-lapse imaging was performed on a Zeiss LSM 710 using a Plan Apo 20×/0.8 objective, with the following parameters: 2% laser intensity at λexc=488 nm, 3% laser intensity at λexc=543 nm, 1.2× zoom, average 4, line step 1, 1000×1000 pixels, 0.35 μm pixel size, 0.65 μs dwell time, 3 slice/z-stack with 7 μm between slices at every 10 minutes.
To test the cytotoxicity of neurelaxin-A in live-cell fluorescence microscopy, time-lapse EGFP-α-tubulin H2B-mCherry labeled HeLa Kyoto cells were imaged in a confocal microscope (FIG. 4a).
Cells were treated with 50 μM neurelaxin-A and imaged for 12 hours applying 3 z-sections every 10 minutes.

Series [5] relates to human melanoma (M2) cells. The experiment in a line: Inhibition of blebbing of M2 cells (blebbing index). Type of series: cell-based. The method, then:
For blebbing index determination, M2 cells were incubated for 30 minutes in PBS in every case prior to the addition of inhibitors, in order to initiate extensive blebbing. Blebbing of the cells was monitored before as well as after inhibitor addition to the cells. DMSO concentration was 0.1 vol/vol % in all experiments. Blebbing index was calculated by summing the initiated blebs in a 5-minute interval (starting at the indicated time points) on a given standard area 17 (whole cells with similar size, diameter=12±1 μm) and normalizing it to the blebbing index prior to inhibitor treatment.
As myosin 2 inhibition blocks blebbing of M2 cells (Straight et al., Science, 2003, 299 (5613), pp 1743-7), the blebbing indices ((Charras, G. T., Yarrow, J. C., Horton, M. A., Mahadevan, L. & Mitchison, T. J. Non-equilibration of hydrostatic pressure in blebbing cells. Nature 435, 365-369, doi:10.1038/nature03550 (2005))) of M2 cells were measured in time, after incubating the cells in neurelaxin-A at different concentrations (FIG. 3C).

Series [6] in a line: Water solubility and solution stability in assay buffer. The series is classed as physicochemical. The following applies: for solution stability at saturation concentration: 0.1 or 1 vol/vol % DMSO in assay buffer; for solubility: pH 7.3, aqueous buffer, kinetic from dmso stock, read-out: saturation concentration (solubility). The method, then:
The solubility and the solution stability of neurelaxin-A, were measured in 0.1 and 1 vol/vol % DMSO at room temperature.
500 μM inhibitor solutions were prepared in assay buffer (40 mM NaCl, 4 mM MgCl2, 20 mM HEPES pH 7.3) containing 0.1 or 1 vol/vol % DMSO.
After 0, 5, 25, 60 and 240 minutes, the samples were centrifuged for 1 minute. Absorption spectra of the supernatants were recorded and the concentrations of the dissolved inhibitors were determined using the extinction coefficient ε^o427=6860 M^−1cm^−1 (FIG. 2A).

For another series, the system named is spinal cord injury. The experiment in a line: Spinal cord complete section, BBB locomotor scoring. Type of series: in vivo, rat. The following applies: 10 mM in 10% DMSO/90% aCSF at injury site; from day 7; non-treated stays under 3. The method, then: In this experiment, a complete section of the spinal cord on animals was carried out. Then, neurelaxin A administration was carried out at the injury site, 5-10 min after the injury was performed. This neurelaxin-A administration was carried out via a diluted solution of 10 mM of neurelaxin A in a 10% DMSO/90% aCSF (artificial cerebrospinal fluid) solution, leading to an orange bright precipitate that is slowly soluble into the injury site. Finally, a BBB (Basso, Beattie and Bresnahan) analysis is performed in order to study the sequence of functional locomotor recovery patterns. The scale (0-21) represents sequential recovery stages and categorizes combinations of rat joint movement, hindlimb movements, stepping, forelimb and hind limbcoordination, trunk position and stability, paw placement and tail position.
According to this test, any drug treatment which may increase the BBB scores may be considered neuroprotective in animal models.
In this experiment, treated animals (n=3) were undistinguishable from non-treated animals (n=3). The BBB scoring scale ranges from 0 to 21.

Series [7] is described as follows: Fluorescence emission spectrum. The following applies: 5 μM, λexc=350 nm, assay buffer 0.1% DMSO. The series is classed as physicochemical. The method, then: as §1
Fluorescence emission spectra (λexc.=350 nm) were recorded in assay buffer containing 0.1% DMSO comprising the inhibitor at 5 μM concentration.

For `Cc1ccc2c(c1)C(=O)C1(O)CCN(c3ccc(N)cc3)C1=N2` (stereo not drawn) [Neurelaxin-A, 1-(4-aminophenyl)-3a-hydroxy-6-methyl-3,3a-dihydro-1H-pyrrolo[2,3-b]quinolin-4(2H)-one], the “maximum rate of axon growth” value in series [1] worked out at 0.6 um/min. Moreover, the “time after treatment at which axon regrowth is induced” value in series [1] is 1 h. Also, the “time of treatment at which maximum rate of growth is reached” value in series [1] was 2 h. Besides, the “start of axon regrowth post-ablation” value in series [1] (spontaneous regrowth normally after 30 hours) was determined as 19 h. Also, the “photostability: absorption spectrum after irradiation” value in series [2] is “has not been altered”. Also, in series [3], the “cannabinoid-induced retraction of axonal growth cones” value is given as “significantly prevented”. For the same molecule, the “signs of toxicity in HeLa Kyoto cells” value in series [4] is given as “did not show any signs of toxicity”. Moreover, the “τ, time constant of suppression of blebbing index” value in series [5] (5 μM) came out at 25.0 ± 4.3 min; in series [5] (10 μM), 16.8 ± 1.6 min; in series [5] (25 μM), 9.9 ± 0.3 min; in series [5] (50 μM), 7.8 ± 0.3 min. For the same molecule, the “effect on blebbing indices” value in series [5] (5 μM, within an hour) is “significant decrease”. For the same molecule, the entries for the “time within which blebbing completely stopped” value in series [5] (10 μM), in series [5] (25 μM) and in series [5] (50 μM) were 40 to 60 min, > 20 min and > 20 min, respectively. The “solution stability at saturation concentration” value is given as “remained constant for 4 hours” in series [6] and “stable for several days” in series [6] (listed as neurelaxin-A). In addition, the solubility in series [6] (assay buffer with 0.1 vol/vol % DMSO, 0.1 vol/vol % DMSO in assay buffer pH 7.3, room temperature) is ~298 µM (≈ 91.6 µg/mL); in series [6] (assay buffer with 1 vol/vol % DMSO, 1 vol/vol % DMSO in assay buffer pH 7.3, room temperature), ~426 µM (≈ 131 µg/mL). Moreover, in the series with spinal cord injury, the BBB scoring entry was “significant increasing of BBB scoring”. Besides, the fluorescence signal result in series [7] was “no fluorescence signal”.

The values above are taken from patent US10858357B2, “Water-soluble myosin 2 inhibitors for the treatment of neurological, neuropathic or psychiatric diseases” (PARIS SCIENCES ET LETTRES-QUARTIER LATIN, priority 2016, dated 2020).
